Experimental data as given in ChEMBL document CHEMBL1201862, “PubChem BioAssay data set” (2004).
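Grown in 96-well plates, cells were treated for 48 hours with each compound at five concentrations. Insufficient inhibition: endpoint recorded as highest concentration tested. Here, GI50 denotes the concentration required for 50% inhibition of growth.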 The source made the active and inactive calls. No stated cut-off is given here; in the data, active = GI50 up to about 1.1 µM and inactive = higher.

Tests used:
Test in all cases: inhibition of tumour cell growth, NCI panel, 48 h
KM12 = system: KM12
CCRF-CEM = system: CCRF-CEM
UACC-62 = system: UACC-62
SK-MEL-2 = system: SK-MEL-2
NCI-H226 = system: NCI-H226
OVCAR-4 = system: OVCAR-4
SF-295 = system: SF-295
SNB-19 = system: SNB-19
NCI-H522 = system: NCI-H522
CAKI-1 = system: CAKI-1
UO-31 = system: UO-31
Hs-578T = system: Hs-578T
HCT-116 = system: HCT-116
NCI/ADR-RES = system: NCI/ADR-RES
HOP-92 = system: HOP-92
A498 = system: A498
OVCAR-8 = system: OVCAR-8
UACC-257 = system: UACC-257
HOP-62 = system: HOP-62
HCC 2998 = system: HCC 2998

SMILES	GI50 (KM12)	GI50 (CCRF-CEM)	GI50 (UACC-62)	GI50 (SK-MEL-2)	GI50 (NCI-H226)	GI50 (OVCAR-4)	GI50 (SF-295)	GI50 (SNB-19)	GI50 (NCI-H522)	GI50 (CAKI-1)	GI50 (UO-31)	GI50 (Hs-578T)	GI50 (HCT-116)	GI50 (NCI/ADR-RES)	GI50 (HOP-92)	GI50 (A498)	GI50 (OVCAR-8)	GI50 (UACC-257)	GI50 (HOP-62)	GI50 (HCC 2998)
CC1CCC(O)(C(C)(C(=O)O)c2ccccc2)CC1 (centres undefined)	> 100 µM (inactive)	82.8 µM (inactive)	> 100 µM (inactive)	> 100 µM (inactive)	91.6 µM (inactive)	> 100 µM (inactive)	> 100 µM (inactive)	48.3 µM (inactive)	> 100 µM (inactive)	57.4 µM (inactive)	> 100 µM (inactive)	74 µM (inactive)	> 100 µM (inactive)	> 100 µM (inactive)	83.9 µM (inactive)	68.4 µM (inactive)	> 100 µM (inactive)	> 100 µM (inactive)	68.1 µM (inactive)	
COc1ccc(CCc2cc(OC)c(OC)c(OC)c2)cc1	0.0118 µM (active)	0.0204 µM (active)	0.0165 µM (active)	0.146 µM (active)	0.386 µM (active)	5.05 µM (inactive)	0.0178 µM (active)	0.111 µM (active)	0.0195 µM (active)	0.0206 µM (active)	1.95 µM (inactive)	0.0438 µM (active)	0.0214 µM (active)	0.0622 µM (active)	0.805 µM (active)	< 0.0207 µM (active)	0.1 µM (active)	0.544 µM (active)	0.0196 µM (active)	0.0568 µM (active)
C[C@H]1[C@H](C)N(Cc2ccccc2)P(=O)(C(O)/C=C/c2ccccc2)N1Cc1ccccc1 (some centres undefined)	8.91 µM (inactive)		4.18 µM (inactive)	4.7 µM (inactive)	7.52 µM (inactive)	5.04 µM (inactive)	6.95 µM (inactive)	12 µM (inactive)	5.83 µM (inactive)	8.28 µM (inactive)	5.27 µM (inactive)	4.79 µM (inactive)	5.21 µM (inactive)	10.4 µM (inactive)	7.18 µM (inactive)	5.45 µM (inactive)	8.53 µM (inactive)	5.42 µM (inactive)	8.41 µM (inactive)	6.3 µM (inactive)
Cn1c(SCc2ccc(F)cc2)nnc1C12CC3CC(CC(C3)C1)C2		17.1 µM (inactive)	27.1 µM (inactive)	40.6 µM (inactive)	33.5 µM (inactive)	35.2 µM (inactive)	50.8 µM (inactive)	53.5 µM (inactive)	36.9 µM (inactive)	> 100 µM (inactive)	34.4 µM (inactive)	34.8 µM (inactive)	23.3 µM (inactive)	28.9 µM (inactive)	25 µM (inactive)	11 µM (inactive)	31.8 µM (inactive)	33.2 µM (inactive)	47.3 µM (inactive)	39.2 µM (inactive)
CC(=O)/C(=C/NC(=S)Nc1ccccc1)C(=O)Nc1ccccc1C	> 100 µM (inactive)	> 100 µM (inactive)	> 100 µM (inactive)	> 100 µM (inactive)	> 100 µM (inactive)	> 100 µM (inactive)	> 100 µM (inactive)	> 100 µM (inactive)	> 100 µM (inactive)	40.9 µM (inactive)	41.8 µM (inactive)	> 100 µM (inactive)	> 100 µM (inactive)	> 100 µM (inactive)	99.1 µM (inactive)	> 100 µM (inactive)	> 100 µM (inactive)	> 100 µM (inactive)	> 100 µM (inactive)	> 100 µM (inactive)
COc1cc(C(=O)c2cocc2C(=O)c2ccc3c(c2)OCO3)cc(OC)c1OC	0.254 µM (active)	0.444 µM (active)	0.311 µM (active)	0.619 µM (active)	1.8 µM (inactive)	18.5 µM (inactive)	0.351 µM (active)	0.933 µM (active)	0.268 µM (active)	0.378 µM (active)	1.58 µM (inactive)	0.274 µM (active)	0.333 µM (active)	0.142 µM (active)	2.69 µM (inactive)	4.05 µM (inactive)	1.35 µM (inactive)	0.531 µM (active)	1 µM (active)	3.72 µM (inactive)
COc1cc2cc(C(=O)N3CC(CCl)c4ccc([N+](C)(C)Cc5ccccc5[N+](=O)[O-])cc43)[nH]c2c(OC)c1OC (centres undefined)	2.24 µM (inactive)	0.966 µM (active)	1.01 µM (active)	1.89 µM (inactive)	1.48 µM (inactive)	2.41 µM (inactive)	1.47 µM (inactive)	2.36 µM (inactive)	0.198 µM (active)	1.01 µM (active)	1.33 µM (inactive)	2.4 µM (inactive)	1.66 µM (inactive)	1.76 µM (inactive)	2.21 µM (inactive)	0.398 µM (active)	3.44 µM (inactive)	1.66 µM (inactive)	2.94 µM (inactive)	1.27 µM (inactive)
CC(C)=CC(=O)c1[nH]c2ccccc2c1CC(=O)NCCc1c[nH]cn1	> 100 µM (inactive)	> 100 µM (inactive)	> 100 µM (inactive)	> 100 µM (inactive)	> 100 µM (inactive)	> 100 µM (inactive)	> 100 µM (inactive)	> 100 µM (inactive)	> 100 µM (inactive)	> 100 µM (inactive)	> 100 µM (inactive)	> 100 µM (inactive)	> 100 µM (inactive)	> 100 µM (inactive)	> 100 µM (inactive)	> 100 µM (inactive)	> 100 µM (inactive)	> 100 µM (inactive)		> 100 µM (inactive)
CN(C)CCCNc1ncnc2[nH]cnc12	> 100 µM (inactive)	> 100 µM (inactive)	> 100 µM (inactive)	> 100 µM (inactive)	> 100 µM (inactive)	> 100 µM (inactive)	> 100 µM (inactive)	> 100 µM (inactive)	> 100 µM (inactive)	> 100 µM (inactive)	> 100 µM (inactive)	> 100 µM (inactive)	> 100 µM (inactive)	> 100 µM (inactive)	38.1 µM (inactive)	> 100 µM (inactive)	> 100 µM (inactive)		> 100 µM (inactive)	> 100 µM (inactive)
COc1ccc(/N=N/c2ccc3oc(=O)c(C(=O)Nc4ccc(OC)cc4)cc3c2)cc1	13.8 µM (inactive)	4.89 µM (inactive)		14 µM (inactive)	13.1 µM (inactive)	13.4 µM (inactive)	21.3 µM (inactive)	22.5 µM (inactive)	26.5 µM (inactive)	25.6 µM (inactive)	14 µM (inactive)	20.9 µM (inactive)	11.2 µM (inactive)	16.2 µM (inactive)	18.4 µM (inactive)	2.77 µM (inactive)	14.3 µM (inactive)	23.8 µM (inactive)	13.9 µM (inactive)	19.4 µM (inactive)
CN1C2CCC1CC(CC(=O)NC(c1ccc(F)cc1)c1ccc(F)cc1)C2 (centres undefined)	> 100 µM (inactive)	2.2 µM (inactive)		22.5 µM (inactive)	> 100 µM (inactive)	> 100 µM (inactive)	> 100 µM (inactive)	> 100 µM (inactive)	> 100 µM (inactive)	> 100 µM (inactive)	56.1 µM (inactive)	> 100 µM (inactive)	59.7 µM (inactive)	> 100 µM (inactive)	60 µM (inactive)	> 100 µM (inactive)	> 100 µM (inactive)	20 µM (inactive)	> 100 µM (inactive)	
O=C(Nc1sccc1S(=O)(=O)c1ccc(Cl)cc1)C(F)(F)F	13.4 µM (inactive)		9.27 µM (inactive)	13.5 µM (inactive)	29.6 µM (inactive)	33.7 µM (inactive)	26.3 µM (inactive)	> 100 µM (inactive)	8.63 µM (inactive)	24.9 µM (inactive)	25.1 µM (inactive)	18.7 µM (inactive)	14.1 µM (inactive)	18.4 µM (inactive)	23.6 µM (inactive)	33.9 µM (inactive)	24.6 µM (inactive)	32.7 µM (inactive)	37.4 µM (inactive)	22.9 µM (inactive)
COC(=O)C(/C(=N/N)C(=O)Nc1ccc(C)c(C)c1)c1nc2ccc(Cl)cc2nc1O (centres undefined)	> 100 µM (inactive)	> 100 µM (inactive)	> 100 µM (inactive)	> 100 µM (inactive)	> 100 µM (inactive)	> 100 µM (inactive)	> 100 µM (inactive)		> 100 µM (inactive)	> 100 µM (inactive)	28.4 µM (inactive)	> 100 µM (inactive)	> 100 µM (inactive)	> 100 µM (inactive)	> 100 µM (inactive)	> 100 µM (inactive)	> 100 µM (inactive)	> 100 µM (inactive)	> 100 µM (inactive)	> 100 µM (inactive)
CN1CCN(CCCNN)CC1	> 100 µM (inactive)		> 100 µM (inactive)	> 100 µM (inactive)	> 100 µM (inactive)	> 100 µM (inactive)	> 100 µM (inactive)	> 100 µM (inactive)	> 100 µM (inactive)	> 100 µM (inactive)	> 100 µM (inactive)	> 100 µM (inactive)	> 100 µM (inactive)	> 100 µM (inactive)	> 100 µM (inactive)	> 100 µM (inactive)	> 100 µM (inactive)	> 100 µM (inactive)	> 100 µM (inactive)	> 100 µM (inactive)
